Source: patent publication US4512992A, “Treatment with dialkoxy pyridopyrimidine compounds” (Burroughs Wellcome Co., priority 1981, dated 1985)

Tests used:
[1] = molecular target: Histamine N-Methyltransferase (HMT) (Homo sapiens, UniProt P50135); experiment: Inhibition of histamine N-methyltransferase (HMT); format: biochemical
Experimental: Inhibition of Histamine N-Methyltransferase
The effect of the test compounds used in Example 2 against HMT was determined. An inhibition of less than 20% was considered acceptable.

[2] = molecular target: T1, mammalian dihydrofolate reductase (DHFR) (Rattus norvegicus, UniProt Q920D2); experiment: Inhibition of mammalian dihydrofolate reductase (DHFR) partially purified from rat liver; format: biochemical
T1 construct: DHFR partially purified from rat liver; from tissue; host or cells: rat liver
T1 sequence (Q920D2 1-187): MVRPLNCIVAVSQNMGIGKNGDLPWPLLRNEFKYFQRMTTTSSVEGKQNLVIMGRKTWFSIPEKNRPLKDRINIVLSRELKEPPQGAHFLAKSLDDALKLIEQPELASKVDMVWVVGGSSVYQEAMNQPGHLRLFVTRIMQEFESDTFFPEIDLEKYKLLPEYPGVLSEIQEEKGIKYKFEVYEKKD
Experimental: Inhibition of Mammalian Dihydrofolate Reductase (DHFR) by […]-5-methyl-6-benzylpyrido(2,3-d)pyrimidines
The inhibitory effect of the test compounds against DHFR partially purified from rat liver was determined. An IC50 of 5×10^-8 M or less is considered significant potency, an IC50 of 1×10^-8 M or less being particularly significant potency.

Histamine N-Methyltransferase (HMT), sequence (P50135 whole entry, species assumed): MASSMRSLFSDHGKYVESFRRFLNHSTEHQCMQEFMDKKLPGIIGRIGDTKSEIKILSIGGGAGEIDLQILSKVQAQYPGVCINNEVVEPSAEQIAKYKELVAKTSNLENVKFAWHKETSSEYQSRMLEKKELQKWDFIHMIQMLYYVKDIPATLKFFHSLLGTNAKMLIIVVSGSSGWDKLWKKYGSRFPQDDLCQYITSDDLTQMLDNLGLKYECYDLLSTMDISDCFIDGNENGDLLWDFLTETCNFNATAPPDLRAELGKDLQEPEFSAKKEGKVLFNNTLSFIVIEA

Structure (SMILES): COc1ccc(Cc2cnc3nc(N)nc(N)c3c2C)cc1OC [2,4-Diamino-6-(3,4-dimethoxybenzyl)-5-methylpyrido[2,3-d]pyrimidine]
- inhibitory activity against HMT (in words) [1]: acceptably low inhibitory activity against HMT
- inhibitor of mammalian DHFR (in words) [2]: very potent inhibitor of mammalian DHFR
